Patent US7199216B1, “Peptide constructs for treating autoimmune and related diseases” (Cel-Sci Corporation, priority 1999, dated 2007)
No end group written: not given here.

How the values were obtained:
rabbits = test: Immunogenicity in rabbits; format: in vivo
Source text: (§1) The antigenic portion My-1 of these constructs is immunogenic in several strains of mice and in rabbits.

A/J strain of mice = conditions: injected in the presence of adjuvant; cited from earlier work
several strains of mice = test: Immunogenicity in mice; format: in vivo
Source text: as §1

[1] = Immunogenicity of TCBL peptides judged by development of antibodies that react to the peptides; format: in vivo; conditions: judged by the lack of developing antibodies that react to these peptides
Source text: as §1

Substance	immunogenicity (rabbits)	induction of myocarditis (A/J strain of mice)	immunogenicity (several strains of mice)	immunogenicity [1]
DSAFDVLSFTAEEKAGVYK [myocardiogenic peptide derived from murine cardiac myosin heavy chain (amino acids 334–352)]	immunogenic	induce severe myocarditis	immunogenic	
NGQEEKAGVVSTGLI (peptide G) [non-modified TCBL from the beta-2 domain of HLA/MHC class II molecule]				only poorly immunogenic
Asp Leu Leu Lys Asn Gly Glu Arg (Xaa) Glu Lys Val Glu [m-J]				only poorly immunogenic
Asn Gly Gln Glu Glu (Xaa) Ala Gly Val Val Ser Thr Gly Leu Ile [m-G]				only poorly immunogenic
